Measured values published in patent publication US8187876B2, “Expansion of stem/progenitor cells by inhibition of enzymatic reactions catalyzed by the Sir2 family of enzymes” (Gamida Cell Ltd., priority 2004, dated 2012).

Legend:
Type in all cases: cell-based, human
CD34+ cells [1] = assay: FACS immunophenotyping of cultured/re-selected CD34+ cells for stem/early progenitor cells
Experimental: Immunophenotyping—For immuno-phenotyping, cells were harvested, washed with phosphate buffered saline (PBS), containing 1% BSA and 0.1% sodium azide, and stained by incubation (at 4° C. for 60 min) with phycoerythrin (PE)-conjugated anti CD38 (Immunoquality Products, The Netherlands), flourescein isothiocyanate (FITC)-conjugated anti CD34 (Miltenyi Biotec) both at 5 μl per 50 μl cell suspension. The cells were then washed with the same buffer and analyzed, using FACS-calibur flow cytometer (Becton-Dickinson, Immunofluorometry systems, Mountain View, Calif.). Cells were passed at a rate of about 1000 cells/second, using saline as the sheath fluid. A 488 nm argon laser beam served as the light source for excitation. Emission of ten thousand cells was measured using logarithmic amplification and calculated using the cellQuest software. Background noise was determined using isotype control stained cells. Arithmetic Mean Fluorescence Channel (MFC) of the negative and positive populations and the stained cells to noise (S/N) ratio were calculated.
The highly purified, re-selected CD34+ cell fraction from a three week culture was FACS analyzed for stem/early progenitor cells: CD34+CD38− (FIG. 3), CD34+Lin−(CD3, 4, 19, 38, 33, 14 and 15 minus, FIG. 4) as well as for the percentages of CD38-HLA-DR minus cells (FIG. 5). […] For example, at 5 uM nicotinamide the percentages of CD34+Lin− cells were 4.11 whereas in control cultures only 0.02%, the percentages of CD34+CD38− cells were 34.6 in nicotinamide cultures and only 0.67 in control.
The CD34+CD38− cells are shown in the upper left part of the plot. FIG. 6b, the cells were stained with CD34(PE) and Lin(38, 33, 4, 3, 15, 14, 19, 61) (FITC). The CD34+Lin− cells are shown in the upper left part of the plot. FIG. 6c, the cells were stained for 34PE and HLA-DR and CD38 FITC. The CD34+/CD38− HLA-DR− cells are shown in the upper left part of the plot.

CD34+ cells [2] = assay: Ex vivo expansion of CD34+ cell cultures, three weeks, CD34+ cells re-selected and enumerated; conditions: 5 μM nicotine amide; cytokines SCF, TPO, FLt3, IL-6, IL-3; only cytokine treated cultures 35×10^4
Experimental: Sample collection and purification—Cells were obtained from umbilical cord blood (CB) after a normal full-term delivery (informed consent was given). Samples were collected and processed within 12 hours postpartum. Blood was mixed with 3% Gelatin (Sigma, St. Louis, Mo.) and let sedimented for 30 minutes to remove most red blood cells (RBC). The leukocyte-rich fraction was harvested and layered on Ficoll-Hypaque gradient (1.077 g/mL; Sigma), and centrifuged at 400 g for 30 minutes. […]
Purification of CDD133+ and CD34+ cells—To purify CDD133+ or CD34^+ cells, the mononuclear cell fraction was subjected to two cycles of immuno-magnetic separation using the “MiniMACS or Clinimax CD34 progenitor cell isolation kit” (Miltenyi Biotec, Aubun, Calif.) following the manufacturer's recommendations. The purity of the CD34^+ population obtained ranged from 95% to 98% as evaluated by flow cytometry (see below). […]
At weekly intervals, cell cultures were semi-depopulated and supplemented with fresh medium, serum and cytokines. At various time points, cells were harvested, counted following staining with trypan blue, and cell morphology was determined on cytospin (Shandon, UK)-prepared smears stained with May-Grunwald/Giemsa solutions. […]

CD34+ cells [3] = assay: Two phase culture system: long-term expansion of CD34+ cell cultures (3-week treatment phase, then cytokines only); conditions: 200 mM Splitomicin for first 3 weeks
Experimental: Two phase culture system—Purified CD34+ cells were cultured in culture bags (American Fluoroseal Co. Gaithersburg, Md., USA) at a concentration of 1×10^4 cells/ml in MEMα/10% FCS containing the following human recombinant cytokines: Thrombopoietin (TPO), interleukin-6 (IL-6), FLT-3 ligand and stem cell factor (SCF), each at a final concentration of 50 ng/ml (Perpo Tech, Inc., Rocky Hill, N.J., USA), with or without Nicotinamide or Sirtinol or Splitomicin and incubated at 37° C. in a humidified atmosphere of 5% CO2 in air. Until week 3, the cultures were topped weekly with the same volume of fresh medium, Nicotinamide or Sirtinol or Splitomicin and growth factors. From week three and up to the termination of the experiments the cultures were weekly demi-depopulated and supplemented with cytokines only. Cells were counted following staining with trypan blue. At various time points, harvested cells were used to assay the content of colony forming units in culture (CFUc), enumeration of CD34+ cells following re-selection and immunophenotype analysis. Cell morphology was determined on cytospin (Shandon). […] On week 5 cells were enumerated, numbers of CFUc were determined and CD34+ cells were re-isolated from 10 ml cultures, counted and accumulative numbers per culture were calculated.

CD34+ cells [4] = assay: Assay for Colony Forming Units (CFUc) in semi-solid medium; conditions: 200 mM Splitomicin for first 3 weeks; week 5; colonies scored after 14 days
Experimental: Assay for Colony Forming Units (CFU)—Cells were cloned in semi-solid, methylcellulose-containing medium supplemented with 2 IU/mL erythropoietin (Eprex, Cilag AG Int., Switzerland), stem cell factor and IL-3, both at 20 ng/mL, G-CSF and GM-CSF, both at 10 ng/mL (all from Perpo Tech). Cultures were incubated for 14 days at 37° C. in humidified atmosphere of 5% CO2 in air.
Cell culturing—Cell culturing was effected was described above. Specifically, cultures were initiated with a total of 1.2×10^5 CD34+ cells in cytokine-supplemented medium, with or without (control) […] Splitomicin. From week 3 and on all cultures were supplemented with cytokines only. On week 5 cells were enumerated, numbers of CFUc were determined and CD34+ cells were re-isolated from 10 ml cultures, counted and accumulative numbers per culture were calculated.

| Compound | percentages of CD34+CD38− cells in re-selected CD34+ fraction (CD34+ cells [1]; 5 uM nicotinamide, three week culture, control 0.67) | percentages of CD34+Lin− cells in re-selected CD34+ fraction (CD34+ cells [1]; 5 uM nicotinamide, three week culture, control cultures 0.02%) | CD34+ cells re-selected after three week expansion (CD34+ cells [2]) | CD34+/CD38− population shift in FACS dot plot (CD34+ cells [1]; 75 mM splitomicin) | increase in CD34+ cells (CD34+ cells [3]; CD34+ cells re-isolated on week 5) | total cell expansion vs cytokine-only control (CD34+ cells [3]; counted on week 5) | colony formation (CFU analysis), self-renewal potential (CD34+ cells [4]) |
| --- | --- | --- | --- | --- | --- | --- | --- |
| NC(=O)c1cccnc1 [Nicotinamide, nicotinamide] | 34.6% | 4.11% | 180×10^4 |  |  |  |  |
| O=C1CCc2c(ccc3ccccc23)O1 [Splitomicin] |  |  |  | remarkable up-left shift | about 30% | more than 2 fold | increase in colony formation |
